Read-outs that look alike come from different tables or passages of the source.
Target: T1, xanthine oxidase (Bos taurus, UniProt P80457)
T1 construct: purchased Sigma Chemical Company, St. Louis, Mo; host or cells: milk (grade III, chromatographically purified)
Experiment: in vitro xanthine oxidase assay (rate of uric acid formation from xanthine)
Assay type: biochemical
Experimental: Since uric acid is produced by the oxidation of, first, hypoxanthine to xanthine and, second, of xanthine to uric acid via the enzyme, xanthine oxidase, an inhibitor of xanthine oxidase in vivo would obviously decrease the uric acid concentrations in the blood.
Xanthine oxidase activity was measured at room temperature by the rate of uric acid formation from xanthine substrate. In a total volume of 1 ml., the incubation mixture contained 50 micromoles of potassium phosphate buffer at pH 7.4, 0.05 micromoles of xanthine and 0.01 units of enzyme preparation (chromatographically purified milk xanthine oxidase, grade III, obtained from Sigma Chemical Company, St. Louis, Mo.). The absorbence change at 292 nm was recorded by a Gilford recording spectrophotometer and the uric acid formed was calculated using an extinction coefficient of 12 mM^-1 Cm^-1 at 292 nm.

[1] = milk xanthine oxidase 0.01 units, 0.05 micromoles xanthine in 1 ml, pH 7.4, room temperature, 292 nm, read-out: I50 (concentration of drug which inhibits 50% of the oxidation of xanthine to uric acid by the xanthine oxidase preparation) (converted)

T1 sequence (P80457 whole entry): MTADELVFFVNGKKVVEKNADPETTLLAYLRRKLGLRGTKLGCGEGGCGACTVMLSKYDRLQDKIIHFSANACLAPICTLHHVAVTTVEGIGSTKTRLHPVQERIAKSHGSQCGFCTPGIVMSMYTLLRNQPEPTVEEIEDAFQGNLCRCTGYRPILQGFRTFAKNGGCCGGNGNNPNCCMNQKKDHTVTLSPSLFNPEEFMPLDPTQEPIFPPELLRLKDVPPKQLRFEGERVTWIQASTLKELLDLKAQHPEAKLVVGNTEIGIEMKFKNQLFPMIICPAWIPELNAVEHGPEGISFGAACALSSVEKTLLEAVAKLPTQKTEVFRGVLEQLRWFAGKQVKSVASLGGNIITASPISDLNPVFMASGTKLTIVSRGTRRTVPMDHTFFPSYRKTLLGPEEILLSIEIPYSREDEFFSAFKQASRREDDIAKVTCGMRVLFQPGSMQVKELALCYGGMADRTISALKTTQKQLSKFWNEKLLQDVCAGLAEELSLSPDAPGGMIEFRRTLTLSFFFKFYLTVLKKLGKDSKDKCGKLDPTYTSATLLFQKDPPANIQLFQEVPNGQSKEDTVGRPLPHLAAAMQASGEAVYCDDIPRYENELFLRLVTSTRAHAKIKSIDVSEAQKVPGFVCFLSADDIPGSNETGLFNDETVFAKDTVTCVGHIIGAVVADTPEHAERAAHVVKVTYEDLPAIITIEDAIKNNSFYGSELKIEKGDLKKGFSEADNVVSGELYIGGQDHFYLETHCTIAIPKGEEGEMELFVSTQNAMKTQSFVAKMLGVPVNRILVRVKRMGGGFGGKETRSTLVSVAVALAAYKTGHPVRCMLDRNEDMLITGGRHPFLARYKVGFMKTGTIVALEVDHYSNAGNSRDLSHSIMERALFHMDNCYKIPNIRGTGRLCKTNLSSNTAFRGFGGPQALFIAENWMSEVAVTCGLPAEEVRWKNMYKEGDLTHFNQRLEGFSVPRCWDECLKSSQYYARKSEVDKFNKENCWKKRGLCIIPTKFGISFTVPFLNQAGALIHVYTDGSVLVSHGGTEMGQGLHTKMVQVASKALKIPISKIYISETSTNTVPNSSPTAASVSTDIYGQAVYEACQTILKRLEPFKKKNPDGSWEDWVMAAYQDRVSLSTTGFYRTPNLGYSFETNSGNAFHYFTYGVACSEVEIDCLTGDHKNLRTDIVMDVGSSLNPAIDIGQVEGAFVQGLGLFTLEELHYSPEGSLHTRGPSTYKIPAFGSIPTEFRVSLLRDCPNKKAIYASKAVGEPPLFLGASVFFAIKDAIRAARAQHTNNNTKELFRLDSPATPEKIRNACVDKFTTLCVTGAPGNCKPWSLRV

| Compound | IC50 [1] | IC50 |
| --- | --- | --- |
| Nc1c(-c2ccc3c(c2)OCO3)nsc1C(=O)O [3,4-methylenedioxy, 3-(1,3-benzodioxyl-5-yl)-4-amino-5-isothiazolecarboxylic acid] | 492 nM |  |
| Nc1c(-c2cccs2)nsc1C(=O)O [Ar=2-thienyl, 3-(2-thienyl)-4-amino-5-isothiazolecarboxylic acid] | 3310 nM |  |
| Nc1c(-c2cccnc2)nsc1C(=O)O [Ar=3-pyridinyl, 3-(3-pyridyl)-4-amino-5-isothiazolecarboxylic acid] | 1490 nM |  |
| O=C(O)c1snc(-c2cccc(C(F)(F)F)c2)c1F [R=3-CF3, X=F, 3-(3-trifluoromethylphenyl)-4-fluoro-5-isothiazolecarboxylic acid] | 68.7 nM |  |
| O=C(O)c1snc(-c2cccc(C(F)(F)F)c2)c1I [R=3-CF3, X=I, 3-(3-trifluoromethylphenyl)-4-iodo-5-isothiazolecarboxylic acid] |  | 238 nM |
| CNc1c(-c2cccc(C(F)(F)F)c2)nsc1C(=O)O [R=3-CF3, X=NHCH3, 3-(3-trifluoromethylphenyl)-4-methylamino-5-isothiazolecarboxylic acid] | 562 nM |  |
| COc1ccc(-c2nsc(C(=O)O)c2N)cc1C [R=3-CH3, R^1=4-OCH3, 3-(4-methoxy-3-methylphenyl)-4-amino-5-isothiazolecarboxylic acid] | 151 nM |  |
| Cc1cccc(-c2nsc(C(=O)O)c2N)c1 [R=3-CH3, R^1=H, 3-(3-tolyl)-4-amino-5-isothiazolecarboxylic acid] | 640 nM |  |
| Cc1cccc(-c2nsc(C(=O)O)c2Cl)c1 [R=3-CH3, X=Cl, 3-(3-tolyl)-4-chloro-5-isothiazolecarboxylic acid] | 134 nM |  |
| Nc1c(-c2ccc(Cl)c(Cl)c2)nsc1C(=O)O [R=3-Cl, R^1=4-Cl, 3-(3,4-dichlorophenyl)-4-amino-5-isothiazolecarboxylic acid] | 214 nM |  |
| Nc1c(-c2cccc(Cl)c2)nsc1C(=O)O [R=3-Cl, R^1=H, 3-(3-chlorophenyl)-4-amino-5-isothiazolecarboxylic acid] | 267 nM |  |
| O=C(O)c1snc(-c2cccc(Cl)c2)c1Br [R=3-Cl, X=Br, 3-(3-chlorophenyl)-4-bromo-5-isothiazolecarboxylic acid] | 81.6 nM |  |
| O=C(O)c1snc(-c2cccc(Cl)c2)c1Cl [R=3-Cl, X=Cl, 3-(3-chlorophenyl)-4-chloro-5-isothiazolecarboxylic acid] |  | 69.3 nM |
| O=C(O)c1cc(-c2cccc(Cl)c2)ns1 [R=3-Cl, X=H, 3-(3-chlorophenyl)-5-isothiazolecarboxylic acid] | 334 nM |  |
| O=C(O)c1snc(-c2cccc(Cl)c2)c1I [R=3-Cl, X=I, 3-(3-chlorophenyl)-4-iodo-5-isothiazolecarboxylic acid] | 903 nM |  |
| COc1ccc(-c2nsc(C(=O)O)c2N)cc1F [R=3-F, R^1=4-OCH3, 3-(3-fluoro-4-methoxyphenyl)-4-amino-5-isothiazolecarboxylic acid] | 67.1 nM |  |
| Nc1c(-c2cccc(F)c2)nsc1C(=O)O [R=3-F, R^1=H, 3-(3-fluorophenyl)-4-amino-5-isothiazolecarboxylic acid] | 1260 nM |  |
| O=C(O)c1snc(-c2cccc(F)c2)c1Cl [R=3-F, X=Cl, 3-(3-fluorophenyl)-4-chloro-5-isothiazolecarboxylic acid] | 116 nM |  |
| COc1ccc(-c2nsc(C(=O)O)c2N)cc1OC [R=3-OCH3, R^1=4-OCH3, 3-(3,4-dimethoxyphenyl)-4-amino-5-isothiazolecarboxylic acid] | 410 nM |  |
| COc1cc(OC)cc(-c2nsc(C(=O)O)c2N)c1 [R=3-OCH3, R^1=5-OCH3, 3-(3,5-dimethoxyphenyl)-4-amino-5-isothiazolecarboxylic acid] | 89.2 nM |  |
| COc1cccc(-c2nsc(C(=O)O)c2N)c1 [R=3-OCH3, R^1=H, 3-(3-methoxyphenyl)-4-amino-5-isothiazolecarboxylic acid] | 1160 nM |  |

| Compound | IC50 [1] | IC50 |
| --- | --- | --- |
| COc1cccc(-c2nsc(C(=O)O)c2Cl)c1 [R=3-OCH3, X=Cl, 3-(3-anisyl)-4-chloro-5-isothiazolecarboxylic acid] | 108 nM |  |
| COc1cccc(-c2cc(C(=O)O)sn2)c1 [R=3-OCH3, X=H, 3-(3-anisyl)-5-isothiazolecarboxylic acid] | 3740 nM |  |
| COc1cccc(-c2nsc(C(=O)O)c2I)c1 [R=3-OCH3, X=I, 3-(3-anisyl)-4-iodo-5-isothiazolecarboxylic acid] | 1720 nM |  |
| Nc1c(-c2ccc(Br)cc2)nsc1C(=O)O [R=4-Br, R^1=H, 3-(4-bromophenyl)-4-amino-5-isothiazolecarboxylic acid] | 2760 nM |  |
| Nc1c(-c2ccc(C(F)(F)F)cc2)nsc1C(=O)O [R=4-CF3, R^1=H, 3-(4-trifluoromethylphenyl)-4-amino-5-isothiazolecarboxylic acid] | 624 nM |  |
| Cc1ccc(-c2nsc(C(=O)O)c2N)cc1 [R=4-CH3, R^1=H, 3-(p-tolyl)-4-amino-5-isothiazolecarboxylic acid] | 1200 nM |  |
| Cc1ccc(-c2nsc(C(=O)O)c2Cl)cc1 [R=4-CH3, X=Cl, 3-(4-tolyl)-4-chloro-5-isothiazolecarboxylic acid] | 315 nM |  |
| Nc1c(-c2ccc(Cl)cc2)nsc1C(=O)O [R=4-Cl, R^1=H, 3-(4-chlorophenyl)-4-amino-5-isothiazolecarboxylic acid] | 2750 nM |  |
| O=C(O)c1snc(-c2ccc(Cl)cc2)c1Br [R=4-Cl, X=Br, 3-(4-chlorophenyl)-4-bromo-5-isothiazolecarboxylic acid] |  | 314 nM |
| O=C(O)c1snc(-c2ccc(Cl)cc2)c1Cl [R=4-Cl, X=Cl, 3-(4-chlorophenyl)-4-chloro-5-isothiazolecarboxylic acid] | 365 nM |  |
| O=C(O)c1cc(-c2ccc(Cl)cc2)ns1 [R=4-Cl, X=H, 3-(4-chlorophenyl)-5-isothiazolecarboxylic acid] | 1960 nM |  |
| O=C(O)c1snc(-c2ccc(Cl)cc2)c1I [R=4-Cl, X=I, 3-(4-chlorophenyl)-4-iodo-5-isothiazolecarboxylic acid] | 2740 nM |  |
| Nc1c(-c2ccc(F)cc2)nsc1C(=O)O [R=4-F, R^1=H, 3-(4-fluorophenyl)-4-amino-5-isothiazolecarboxylic acid] | 1600 nM |  |
| O=C(O)c1snc(-c2ccc(F)cc2)c1Cl [R=4-F, X=Cl, 3-(4-fluorophenyl)-4-chloro-5-isothiazolecarboxylic acid] | 202 nM |  |
| CCOc1ccc(-c2nsc(C(=O)O)c2N)cc1 [R=4-OC2 H5, R^1=H, 3-(4-ethoxyphenyl)-4-amino-5-isothiazolecarboxylic acid] | 106 nM |  |
| CCCOc1ccc(-c2nsc(C(=O)O)c2N)cc1 [R=4-OC3 H7, R^1=H, 3-(4-propoxyphenyl)-4-amino-5-isothiazolecarboxylic acid] | 86.2 nM |  |
| COc1ccc(-c2nsc(C(=O)O)c2N)cc1 [R=4-OCH3, R^1=H, 4-amino-3-(4-methoxyphenyl)-5-isothiazolecarboxylic acid] | 559 nM |  |
| COc1ccc(-c2nsc(C(=O)O)c2Cl)cc1 [R=4-OCH3, X=Cl, 3-(4-anisyl)-4-chloro-5-isothiazolecarboxylic acid] | 51.9 nM |  |
| COc1ccc(-c2cc(C(=O)O)sn2)cc1 [R=4-OCH3, X=H, 3-(4-anisyl)-5-isothiazolecarboxylic acid] | 276 nM |  |
| CC(C)Oc1ccc(-c2nsc(C(=O)O)c2N)cc1 [R=4-OCH(CH3)2, R^1=H, 3-(4-isopropoxyphenyl)-4-amino-5-isothiazolecarboxylic acid] | 68.3 nM |  |
